The subject of this experiment is aPGA (Achromobacter spp. penicillin G acylase). Conditions: 0.05 M phosphate buffer, pH 8.0, 35 °C.

On to `CCCCCC(=O)N[C@H]1CCOC1=O` [C06-HSL], for which the Km came out at 620 ± 100 µM.

`CCCCCCCC(=O)N[C@H]1CCOC1=O` [C08-HSL]: the Km was found to be 870 ± 10 µM.

(Values after paper doi:10.1101/2022.01.13.476167v2 (biorxiv, 2022).)
